Experimental data as given in patent US10478421B1, “Sortilin binding compounds, formulations, and uses thereof” (University of Florida, priority 2016, dated 2019).
pKd: −log10 of the molar value. Where “and” joins values, the source holds several entries; their conditions need not be identical. Equal entries are not always repeated.

Experiments:
[1] = system: McA cells; experiment: LDH release into medium (viability of McA cells); type: cell-based, rat; details: incubation with compound (10 μM cpd984, 18 h)
[2] = molecular target: T1, hsortilin (Homo sapiens, UniProt Q99523); experiment: Surface plasmon resonance on hsortilin immobilized on CM7 chips (Example 2); type: binding
T1 construct: Human sortilin (hsortilin) (Ser78-Asn755) with C-terminal 6-His tag; purchased R&D Systems, Inc. (Minneapolis, Minn.)
T1 sequence (Q99523 78-755): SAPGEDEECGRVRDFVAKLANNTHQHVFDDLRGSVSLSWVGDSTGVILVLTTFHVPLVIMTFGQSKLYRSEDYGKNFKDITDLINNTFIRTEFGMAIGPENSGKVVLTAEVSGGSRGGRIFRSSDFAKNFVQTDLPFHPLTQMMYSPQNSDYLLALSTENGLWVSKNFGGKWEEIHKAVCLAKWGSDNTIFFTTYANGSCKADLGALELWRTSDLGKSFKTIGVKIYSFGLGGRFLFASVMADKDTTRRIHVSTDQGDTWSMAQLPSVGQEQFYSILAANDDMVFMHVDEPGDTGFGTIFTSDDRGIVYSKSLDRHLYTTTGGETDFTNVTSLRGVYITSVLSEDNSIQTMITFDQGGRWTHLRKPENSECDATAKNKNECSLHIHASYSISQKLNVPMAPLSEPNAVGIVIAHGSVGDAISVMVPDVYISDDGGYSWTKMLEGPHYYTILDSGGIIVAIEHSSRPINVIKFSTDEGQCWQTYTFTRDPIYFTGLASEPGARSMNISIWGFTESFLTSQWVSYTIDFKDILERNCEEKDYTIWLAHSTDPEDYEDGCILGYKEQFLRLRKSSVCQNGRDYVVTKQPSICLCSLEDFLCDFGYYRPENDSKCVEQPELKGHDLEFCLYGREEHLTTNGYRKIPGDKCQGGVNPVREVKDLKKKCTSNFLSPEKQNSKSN
Description: Surface plasmon resonance (SPR) measurements were performed on a Biacore T200 instrument equipped with two separate CM7 sensor chips, one with about 20,000 response units (RU) and another with about 27,000 RU of hsortilin covalently immobilized. […] For all other SPR injections, regeneration consisted of injections of running buffer alone. GE BIAcore T200 evaluation software version 3.0 (BIAevaluate) was used to analyze and export results. […] PIP3 containing nanodiscs were flowed at 2:1 dilutions to obtain kinetic data fitted using about 27,000 RU CM7 surface. Kinetic fit generated with BIAevaluate and local Rmax using Langmuir 1:1 binding model exported from BIAevaluate to Microsoft Excel 2016 with fit indicated by the black line.

[3] = system: McArdle rat hepatocytes; experiment: VLDL-apo E secretion by McArdle rat hepatocytes (slot blotting); type: cell-based; details: 0.1-25 μM, 14-18 h
Description: McArdle rat hepatocytes were incubated with five media concentrations 0 (no cpd), 1 (0.1 μM), 2 (1 μM), 3 (10 μM) and 4 (25 μM) of cpd984 (FIG. 7A), cpd541 (FIG. 7B), or with a combination of both compounds (FIG. 7C) at indicated concentrations. Hepatocytes were incubated overnight (14-18 h) and media were collected and VLDL-B100 and VLDL-apo E were detected by slot blotting as described above. An anti-rat apoE antibody was used for measurement of VLDL-apo E secretion. Results are the average of triplicate analysis in one study.

[4] = molecular target: T2, hsortilin (Homo sapiens, UniProt Q99523); experiment: SPR binding of 541 and 984 to hsortilin (Example 4)
T2 sequence (Q99523 78-831): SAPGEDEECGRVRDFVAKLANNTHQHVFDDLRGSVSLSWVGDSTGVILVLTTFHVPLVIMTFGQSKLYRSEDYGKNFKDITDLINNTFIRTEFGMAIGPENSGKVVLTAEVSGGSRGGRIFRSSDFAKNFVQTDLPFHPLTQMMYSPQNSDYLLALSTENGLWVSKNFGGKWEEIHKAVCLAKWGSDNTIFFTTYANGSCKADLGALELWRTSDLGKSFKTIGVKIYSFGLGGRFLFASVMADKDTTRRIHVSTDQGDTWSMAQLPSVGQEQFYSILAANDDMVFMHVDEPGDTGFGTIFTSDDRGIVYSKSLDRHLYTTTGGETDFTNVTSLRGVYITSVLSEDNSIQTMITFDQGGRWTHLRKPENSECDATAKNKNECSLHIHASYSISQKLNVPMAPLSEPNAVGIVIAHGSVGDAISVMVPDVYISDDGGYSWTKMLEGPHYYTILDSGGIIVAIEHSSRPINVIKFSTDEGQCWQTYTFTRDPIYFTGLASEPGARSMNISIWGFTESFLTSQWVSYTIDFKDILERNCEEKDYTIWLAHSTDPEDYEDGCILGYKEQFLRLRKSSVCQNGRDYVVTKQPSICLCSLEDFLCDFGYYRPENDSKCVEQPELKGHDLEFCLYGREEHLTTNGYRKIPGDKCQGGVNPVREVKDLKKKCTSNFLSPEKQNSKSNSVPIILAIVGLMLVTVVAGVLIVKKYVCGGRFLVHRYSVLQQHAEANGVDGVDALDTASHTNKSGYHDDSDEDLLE
Description: Due to inherent fluorescence of 541 small molecule, thermophoresis was performed in two different buffer conditions (PBS n=3 and MST n=2) and at two sets of concentration ranges. […] SPR indicates a high and low affinity binding site of cpd984 to human sortilin of hsortilin with Kd of about 200 μM and about 20 nM.

[5] = molecular target: T1, hsortilin; experiment: Surface plasmon resonance of NT and cpd984 on immobilized hsortilin (Ni-NTA chip, Example 1); type: binding
Description: Surface plasmon resonance measurements were performed on a Biacore T200 instrument equipped with Ni-NTA sensor chips with ˜6800 response units (RU) for hsortilin covalently immobilized to the surface. HBS-DMSO running buffer (10 mM Hepes pH 7.4, 150 mM NaCl, 1% DMSO) was used at a flow rate of 30 μl/min and injections performed with times for association of 90 s, and dissociation of 300 s, followed by injection of buffer to regenerate the hsortilin surface. Binding was expressed in relative RU; the difference in response between the immobilized protein flow cell and the corresponding control flow cell.

effect on NT binding to hsortilin by SPR [2]	pKd ([4]; two trials)	SPR binding response ([5]; 100 nM NT injected with 500 μM cpd984)	averaged RU of NT co-injected with 984 ([5]; 100 nM NT with 500 μM cpd984, average)	increase in binding to hsortilin for co-injected NT over the combination of NT and cpd984 alone ([5]; 100 nM NT, 500 μM cpd984)	SPR binding response ([5]; 500 μM cpd984 alone)	RU of 500 μM cpd984 and 100 nM NT (sum of separate injections) ([5]; sum of averaged responses injected alone)	increase of binding of C-term NT (SITE 1) to hsortilin when incubated with 984 [2]	pKd ([4]; high affinity binding site)	pKd ([4]; low affinity binding site)	Compound	LDH release / toxicity [1]	effect on VLDL-apoE secretion [3]	LDH release / toxicity ([1]; listed as 984)
competes for NT binding	5.12	–	–	–	–	–	–	–	–	CC(NC(=O)c1ccccc1NCC(=O)O)c1ccccc1 (stereo not shown) [cpd541]	non-toxic	decreases	–
enhances NT binding	–	64.1 RU and 64.7 RU	64.4 RU	14.5 RU	45.1 RU and 44.8 RU	50.0 RU	100 fold	~7.70	~3.70	CN1CCC[C@H]1C(=O)Nc1cccc(NC(=O)CCc2ccccc2)c1 [cpd984, (2S)-1-methyl-N-{3-[(3-phenylpropanoyl)-amino]phenyl} pyrrolidine-2-carboxamide]	no significant release of LDH	increases	non-toxic
